The text below walks through data of patent US11076594B2, “Pyrazolone compound or salt thereof, preparation method therefor, herbicide composition and use thereof” (QINGDAO KINGAGROOT CHEMICAL COMPOUNDS CO., LTD., priority 2015, dated 2021).

Structures are written as SMILES.

What all share (format): in vivo
Design in all cases: key: Level 10: completely dead; Level 9: above 95% growth control rate; Level 8: above 90% growth control rate; Level 7: above 80% growth control rate; Level 6: above 70% growth control rate; Level 5: above 60% growth control rate; Level 4: above 50% growth control rate; Level 3: above 20% growth control rate; Level 2: 5%-20% growth control rate; Level 1: below 5% growth control rate

One test deals with alopecurus japonicas. As to the kind of experiment: wheat field resistant weed control, greenhouse spray at 4 leaf stage. The note with it: sprayed at 4 leaf stage, 4 weeks after treatment, resistant to ALS and ACCase inhibitor herbicides. The procedure, abridged:
(§1)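 Potted plants grown in greenhouse were sprayed at the 4 leaf stage, 2–3 weeks post-sowing, with compound in acetone plus methyl oleate emulsion diluted in water. After 4 weeks of further greenhouse culture, growth control was scored as fresh weight control rate.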

The test system of another test is bidens tripartite. As to the kind of experiment: weed control effect evaluation in rice field. The note with it: 125 g/ha ai; rice field pot; 14 days after treatment; resistant to pyrazosulfuron-ethyl. The text has this: (§2) The activity level standard of harmful plant destruction (i.e. growth control rate) is as follows: Rice field soil was loaded into a 1/1,000,000 ha pot. The seeds of echinochloa, scirpus juncoides, bidens tripartite and sagittaria trifolia were sowed and gently covered with soil, then left to stand still in greenhouse in the state of 0.5-1 cm of water storage. The tuber of sagittaria trifolia was planted in the next day or 2 days later. It was kept at 3-4 cm of water storage thereafter. The weeds were treated by dripping the WP or SC water diluents prepared according to the common preparation method of the compounds of the present invention with pipette homogeneously to achieve specified effective amount when echinochloa, scirpus juncoides and bidens tripartite reached 0.5 leaf stage and sagittaria trifolia reached the time point of primary leaf stage. The fertility condition of echinochloa, scirpus juncoides, bidens tripartite and sagittaria trifolia 14 days after the treatment of the compound of the invention and the fertility condition of rice 21 days after the treatment of the compound of the invention respectively with the naked eye.

A further test deals with echinochloa. As to the kind of experiment: weed control effect evaluation in rice field. To be noted: 125 g/ha ai; rice field pot; 14 days after treatment; resistant to pyrazosulfuron-ethyl.
Description: as §2

For a further test, the system named is scirpus juncoides. Put plainly: weed control effect evaluation in rice field. The note with it: 125 g/ha ai; rice field pot; 14 days after treatment; resistant to pyrazosulfuron-ethyl.
Description: as §2

The test system of another test is sagittaria trifolia. Put plainly: weed control effect evaluation in rice field. The note with it: 125 g/ha ai; rice field pot; 14 days after treatment; resistant to pyrazosulfuron-ethyl.
Description: as §2

Another test relates to chickweed. As to the kind of experiment: wheat field resistant broadleaf weed control, greenhouse spray at 4 leaf stage. To be noted: 250 g/ha of the active substance; 4 weeks after treatment; ALS inhibitor resistant. In outline: as §1
In the next test the test system is shepherd's purse. The test is described as above. To be noted: 250 g/ha of the active substance; 4 weeks after treatment; ALS inhibitor resistant. In outline: as §1
The subject of a further test is corn gromwell. Described as above. The note with it: 250 g/ha of the active substance; 4 weeks after treatment; ALS inhibitor resistant. The procedure, abridged:
as §1

The subject of another test is flixweed. The description is as above. To be noted: 250 g/ha of the active substance; 4 weeks after treatment; ALS inhibitor resistant. The procedure, abridged: as §1

For the compound `Cc1nn(C)c(O)c1C(=O)c1ccc(C(F)(F)F)c(N2CCCCC2=O)c1Cl` [Compound 035], the “Alopecurus japonicas weed controlling effect (activity level)” value with alopecurus japonicas (1 g/mu) was 0; in the test with alopecurus japonicas (2 g/mu), 2 (Level 2: 5%-20% growth control rate); with alopecurus japonicas (4 g/mu) it was 6 (Level 6: above 70% growth control rate); with alopecurus japonicas (8 g/mu), 6 (Level 6: above 70% growth control rate). Besides, in the test with bidens tripartite, the “Bidens tripartite weed control effect (activity level)” value (“Bidens tripartite weed control effect” for short) was 9 (Level 9: above 95% growth control rate). The “Echinochloa weed control effect (activity level)” value (“Echinochloa weed control effect” below) in the test with echinochloa is 8 (Level 8: above 90% growth control rate). In addition, the “Scirpus juncoides weed control effect (activity level)” value (“Scirpus juncoides weed control effect” for short) in the test on scirpus juncoides is reported as 10. Moreover, the “Sagittaria trifolia weed control effect (activity level)” value (“Sagittaria trifolia weed control effect” below) in the test on sagittaria trifolia was 9 (Level 9: above 95% growth control rate).

As for `Cc1nn(C)cc1C(=O)Oc1c(C(=O)c2ccc(C(F)(F)F)c(N3CCCC3=O)c2Cl)c(C)nn1C` [Compound 023], the “Alopecurus japonicas weed controlling effect (activity level)” value in the test on alopecurus japonicas (1 g/mu) is reported as 1 (Level 1: below 5% growth control rate); with alopecurus japonicas (2 g/mu), 6 (Level 6: above 70% growth control rate); in the test with alopecurus japonicas (4 g/mu), 8 (Level 8: above 90% growth control rate); in the test with alopecurus japonicas (8 g/mu), 10. Also, the “Bidens tripartite weed control effect” value in the test on bidens tripartite is given as 10. Besides, the “Echinochloa weed control effect” value in the test on echinochloa was 10. Further, the “Scirpus juncoides weed control effect” value in the test on scirpus juncoides is on record as 10. Also, the “Sagittaria trifolia weed control effect” value in the test on sagittaria trifolia turned out to be 10.

Turning to `CCOc1c(C(=O)Oc2c(C(=O)c3ccc(C(F)(F)F)c(-n4cc(C)cn4)c3Cl)c(C3CC3)nn2C)cnn1C` [Compound 092], the “chickweed weed controlling effect (activity level)” value (“chickweed weed controlling effect” for short) in the test with chickweed is 10. In the test with shepherd's purse, the “shepherd's purse weed controlling effect (activity level)” value is recorded as 10. The “corn gromwell weed controlling effect (activity level)” value (“corn gromwell weed controlling effect” below) with corn gromwell came to 10. For the same compound, the “flixweed weed controlling effect (activity level)” value (shortened to “flixweed weed controlling effect”) in the test on flixweed turned out to be 10. In addition, in the test with bidens tripartite, the “Bidens tripartite weed control effect” value is recorded as 9 (Level 9: above 95% growth control rate). In the test on echinochloa, the “Echinochloa weed control effect” value turned out to be 10. For the same compound, the “Scirpus juncoides weed control effect” value in the test on scirpus juncoides is 10. The “Sagittaria trifolia weed control effect” value in the test on sagittaria trifolia is given as 10.

Consider `CCOc1c(C(=O)Oc2c(C(=O)c3ccc(C(F)(F)F)c(-n4cc(C)cn4)c3Cl)cnn2C)cnn1C` [Compound 081], for which the “chickweed weed controlling effect” value in the test with chickweed turned out to be 10. In addition, the “shepherd's purse weed controlling effect (activity level)” value in the test on shepherd's purse was found to be 10. For the same compound, the “corn gromwell weed controlling effect” value in the test on corn gromwell was 10. Moreover, the “flixweed weed controlling effect” value in the test with flixweed amounted to 10. For the same compound, in the test on bidens tripartite, the “Bidens tripartite weed control effect” value stood at 10. The “Echinochloa weed control effect” value in the test on echinochloa came to 10. Also, in the test with scirpus juncoides, the “Scirpus juncoides weed control effect” value is recorded as 10. Also, in the test with sagittaria trifolia, the “Sagittaria trifolia weed control effect” value is listed as 10.

With `CCOc1c(C(=O)Oc2c(C(=O)c3ccc(C(F)(F)F)c(N4CCCCC4=O)c3Cl)c(C)nn2C)cnn1C` [Compound 037], the “chickweed weed controlling effect” value with chickweed turned out to be 10. The “shepherd's purse weed controlling effect (activity level)” value with shepherd's purse was found to be 10. The “corn gromwell weed controlling effect” value in the test with corn gromwell was determined as 10. Also, in the test on flixweed, the “flixweed weed controlling effect” value was found to be 10. For the same compound, the “Bidens tripartite weed control effect” value with bidens tripartite was 10. Moreover, in the test with echinochloa, the “Echinochloa weed control effect” value was found to be 10. Also, the “Scirpus juncoides weed control effect” value in the test with scirpus juncoides turned out to be 10. In addition, in the test with sagittaria trifolia, the “Sagittaria trifolia weed control effect” value is reported as 10.

Take `CCn1nc(C)c(C(=O)c2ccc(C(F)(F)F)c(-n3cccn3)c2Cl)c1OC(=O)c1cn(C)nc1C` [Compound 129]: in the test with chickweed, the “chickweed weed controlling effect” value is listed as 10. Besides, the “shepherd's purse weed controlling effect (activity level)” value with shepherd's purse is listed as 10. Besides, the “corn gromwell weed controlling effect” value in the test on corn gromwell came to 10. Besides, in the test on flixweed, the “flixweed weed controlling effect” value worked out at 10. For the same compound, the “Bidens tripartite weed control effect” value in the test with bidens tripartite worked out at 10. The “Echinochloa weed control effect” value in the test with echinochloa was 10. In addition, the “Scirpus juncoides weed control effect” value in the test with scirpus juncoides was 10. Besides, in the test with sagittaria trifolia, the “Sagittaria trifolia weed control effect” value stood at 10.

Turning to `CCOc1c(C(=O)Oc2c(C(=O)c3ccc(C(F)(F)F)c(-n4cccn4)c3Cl)c(C)nn2C)cnn1C` [Compound 071], the “chickweed weed controlling effect” value with chickweed stood at 10. Moreover, in the test on shepherd's purse, the “shepherd's purse weed controlling effect (activity level)” value is recorded as 10. The “corn gromwell weed controlling effect” value in the test on corn gromwell amounted to 10. Moreover, in the test with flixweed, the “flixweed weed controlling effect” value came out at 10. Further, in the test with bidens tripartite, the “Bidens tripartite weed control effect” value is recorded as 8 (Level 8: above 90% growth control rate). For the same compound, the “Echinochloa weed control effect” value in the test on echinochloa was determined as 10. In the test on scirpus juncoides, the “Scirpus juncoides weed control effect” value is 10. Further, the “Sagittaria trifolia weed control effect” value in the test with sagittaria trifolia is given as 10.
